Literature values, collected in patent publication US20140051733A1, “FEBUXOSTAT PHARMACEUTICAL COMPOSITIONS” (Dr. Reddy's Laboratories Ltd., priority 2012, published 2014).
Like-named read-outs stand apart in the source and are kept apart here.

Experiments:
[1] = Class 2 = low solubility, high permeability

Structure (SMILES): Cc1nc(-c2ccc(OCC(C)C)c(C#N)c2)sc1C(=O)O [Febuxostat, 2-[3-cyano-4-(2-methylpropoxy)phenyl]-4-methylthiazole-5-carboxylic acid]
- solubility (in acetonitrile): slightly soluble
- solubility (in dimethylformamide): freely soluble
- solubility (in dimethylsulfoxide): soluble
- solubility (in ethanol): sparingly soluble
- solubility (in methanol): slightly soluble
- solubility (in water): practically insoluble
- Biopharmaceutics Classification System class [1]: Class 2
